US20230303623A1, “PEPTIDES AND METHODS OF USE” (REALTA LIFE SCIENCES, INC., priority 2020, published 2023)
“Also recorded” adds a separate entry of the source.

Assays:
[1] = system: TC-1 cells; assay: TC-1 tumor cell model in C57Bl/6 mice; format: in vivo, mouse
Procedure: Animals were injected with 4×10^5 TC-1 cells subcutaneously into the flank of the animal. Five days later, animals received vehicle treatment with saline (n=6), or drug treatment with RLS-0122 (n=8) IV at 160 mg/kg 1×/day for 15 consecutive days. Animals were also evaluated for behavior and body condition scoring every 2 days for duration of the study. If scoring reached 7 or below, animals were assessed daily. A score of 5 or below was considered endpoint for euthanasia.
To evaluate the efficacy of RLS-0122 in an in vivo system, the inventors utilized the TC-1 tumor cell model in C57Bl/6 mice as previously reported (Roumenina et al., Cancer Immunol Res; 7(7) July 2019). […] When TC-1 cells are introduced into the flank of the mouse, very aggressive tumor formation occurs, resulting in 100% death in approximately 26 days. To test the efficacy of RLS-0122 on survival and quality of life in this model, animals were injected with 4×10^5 TC-1 cells subcutaneously into the flank of the animal. Five days later, animals received vehicle treatment with saline (n=6), or drug treatment with RLS-0122 (n=8) IV at 160 mg/kg 1×/day for 15 consecutive days. […] Animals were also evaluated for behavior and body condition scoring every 2 days for duration of the study. If scoring reached 7 or below, animals were assessed daily. A score of 5 or below was considered endpoint for euthanasia.

[2] = system: antibody-initiated complement activation (lysis of AB human red blood cells by type O serum); assay: ABO incompatibility hemolytic complement assay (CH50-type); format: cell-based; settings: peptides 0.8 mg/ml (~0.5 mM), compared to parent peptide
Procedure: FIG. 1A-1B show PIC1 peptides' inhibition of complement activation in an ABO incompatibility assay. […] Inhibition of ABO incompatibility hemolysis in a CH50-type assay. Peptides are at a final concentration of 0.5 mM. Values are represented as a percent of the positive control, which consists of human 0 sera and AB red blood cells in GVBS^++ buffer. Data are the means of n=3 independent experiments±SEM.
For hemolytic complement assays, human red blood cells (RBCs) from type AB donors were purified, washed, and standardized to 1.0×10^9 cells/ml, as previously described. Human sera from type 0 donors at a 15% final concentration was combined with 0.5 mM of the peptides and the volume was brought up to 0.2 ml with GVBS^++ and 5.0×10^7 RBCs. The samples were incubated for 1 hour at 37° C. and then spun at 3,000 rpm for 5 minutes and the supernatant was collected and read at 412 nm. Values are represented as a percent of the positive control, which consists of human 0 sera and AB red blood cells in GVBS^++ buffer.
To assess the extent to which the peptide variants inhibit antibody-initiated complement activation, an ABO incompatibility ex vivo assay was utilized in which purified erythrocytes from a ‘type AB+’ donor are incubated with sera from a ‘type 0’ subject containing anti-A and anti-B antibodies. Peptides were tested at a concentration of 0.8 mg/ml (˜0.5 mM).

[3] = Total Antioxidant Capacity (TAC) assay; settings: highest peptide concentration 1.5 mM; compared to parent peptide
Procedure, shortened: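 Copper(II)-to-copper(I) reduction kit used per manufacturer to measure antioxidant capacity of PIC1 peptide variants over a concentration range; activity reported at the highest peptide concentration, 1.5 mM.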

[4] = biological target: T1, VEGF (Homo sapiens, UniProt P15692); assay: VEGF Bioassay (Promega), VEGF signaling via VEGFR-2 (KDR); format: cell-based
T1 construct: Promega (bioassay)
T1 sequence (P15692 27-191 isoform P15692-4): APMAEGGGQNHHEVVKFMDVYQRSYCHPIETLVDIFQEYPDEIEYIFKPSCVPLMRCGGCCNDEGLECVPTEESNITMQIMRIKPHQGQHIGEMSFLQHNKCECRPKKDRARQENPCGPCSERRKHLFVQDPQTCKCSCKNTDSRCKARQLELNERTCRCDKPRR
Source text: Luminescence was detected in luminometer plate reader.
Angiogenesis, or the formation of new blood vessels from the established vasculature, is an essential element in tumor growth and metastasis formation. Inhibiting tumor angiogenesis is considered a major therapeutic strategy in oncology. […] The bioluminescent signal is detected in a luminometer.

[5] = system: classical complement pathway activation (C1q with C1r and C1s from A-498 cells); assay: Classical complement activation by A-498 cell supernatant, C4a ELISA; format: biochemical, human; settings: increasing doses 0-8 mg/ml; listed as RLS-0122
Procedure: Supernatants from A-498 cells were added to purified human C1q pre-incubated with increasing doses of RLS-0122 or RLS-0174 and loaded onto an IgG coated plate. Samples were then incubated for 1 hour at 37° C. After incubation samples were washed 3 times with PBS-T before the addition of purified human C4 (4 ug/ml) and incubated for 1.5 hours at 37° C. The supernatants were collected for analysis on Quidel's MicroVue Complement C4a ELISA.
Effective clear-cell renal cell carcinoma (ccRCC) therapies are needed, particularly at the metastatic stage when surgery is ineffective. Complement is a key factor in tissue inflammation, favoring cancer progression through the production of complement component 5a (C5a) (Roumenina et al., Cancer Immunol Res; 7(7) July 2019). Using data mining techniques, ccRCC has been identified as a cancer type expressing concomitantly high expression of the components that are part of the classical complement pathway. High densities of cells producing classical complement pathway components C1q and C4 and the presence of C4 activation fragment deposits in primary tumors are often correlated with poor prognosis. […] The inventors tested the ability of RLS-0122 to block complement activation in human kidney carcinoma cell line A498 system in vitro as assessed by the reduction in C4a levels. […]

IAdLILEP(Sar)CCQERAA (IALILEPXCCQERAA; D-Leu; sarcosine; MOD_RES (3)..(3) D-amino acid; MOD_RES (8)..(8) Sarcosine) [PA-0122]
median survival longer than vehicle ([1]; IV 160 mg/kg 1x/day for 15 consecutive days, p=0.0465): 8 days | quality of life (behavior and body condition scoring), in words ([1]; IV 160 mg/kg 1x/day for 15 days, significant on days 22-26 (p<0.05)): increased quality of life | inhibition of ABO incompatible hemolysis (complement inhibition), in words [2]: greater extent | inhibition of ABO incompatible hemolysis (complement inhibition), in words ([2]; listed as RLS-0122): potently block complement activation | total antioxidant capacity, in words [3]: slight increase in total antioxidant capacity | inhibition of VEGF signaling via VEGFR-2 (luminescence), in words [4]: did not inhibit signaling | C4a generation, in words [5]: dose-dependently reduced the level of C4a generation; also recorded: can inhibit classical complement pathway activation
